{
  "source": "patent US11844791B2",
  "about": "“Use of antagonists and/or inverse agonists of CB1 receptors for preparing medicaments for treating fatigue post-viral fatigue syndrome” (FUNDACION HOSPITAL NACIONAL DE PARAPÉJICOS, priority 2020, dated 2023)",
  "key": {"[1]": {"conditions": "as previously described; cited from earlier work"}, "[2]": {"tested_on": "human motor system (motor cortex and spinal motor neurons)", "assay": "Transcranial magnetic stimulation: MEP amplitude in first dorsal interosseous muscle before and 24 hours after a single Rimonabant dose", "format": "in vivo", "conditions": "healthy subjects, 24 hours after single dose Rimonabant 20 mg; MEP at 120% RMT, FDI at rest; baseline 1.1±0.6 mV; paired T test p=0.02", "description": "The aim of the present experiments was to use transcranial magnetic stimulation to test the effects of a single dose of 20 mg of Rimonabant on the excitability of motor cortex and of spinal motor neurons.\n(§1) Neurophysiological examination was performed before and 24 hours after the administration of a single dose of 20 mg of Rimonabant.\nUsing transcranial magnetic stimulation (TMS), it was evaluated the thresholds for electromyographic responses in the first dorsal interosseous muscle (FDI) at rest and during voluntary contraction.\n(§2) Nine healthy volunteers (mean age±S.D. 32.1±5.8 years) participated in all experiments. All the subjects gave their written informed consent.\nMagnetic stimulation was performed using a high-power Magstim 200 magnetic stimulator (Magstim Co., Whitland, UK). A figure-of-eight coil with external loop diameters of 9 cm was held over the right motor cortex at the optimum scalp position to elicit motor responses in the contralateral first dorsal interosseous (FDI). The induced current flowed in a postero-anterior direction. Resting motor threshold (RMT) was defined as the minimum stimulus intensity that produced a liminal motor evoked response (about 50 μV in 50% of 10 trials) at rest. The main variables we test is the RMT and MEP amplitude before and 24 hours after the Rimonabant 20 mg. MEP amplitude was obtained at 120% RMT. […]"}, "healthy volunteers": {"tested_on": "healthy volunteers", "assay": "Tolerability and adverse effects of a single Rimonabant dose in healthy volunteers", "format": "in vivo, human", "conditions": "single dose 20 mg", "description": "as §1, §2\nHitherto, three subjects experienced agitation and anxiety (this effect lasted an average of 6 hours) and one suffered for nausea (for 24 hours)."}},
  "data": [
    {"molecule": "Cc1c(C(=O)NN2CCCCC2)nn(-c2ccc(Cl)cc2Cl)c1-c1ccc(Cl)cc1", "note": "[Rimonabant, N-(piperidino-1-yl)-5-(4-chlorophenyl)-1-(2,4-dichlorophenyl)-4-methylpyrazole-3-carboxamide]", "values": [
      {"measurement": "Blood-brain barrier penetration", "setting": "[1]", "result": "penetrates the blood-brain barrier"},
      {"measurement": "MEP amplitude (motor system excitability), mean±S.D.", "setting": "[2]", "result": "2.1±1.2", "unit": "mV"},
      {"measurement": "Average duration of agitation and anxiety", "setting": "healthy volunteers; healthy volunteers", "result": 6, "unit": "h"},
      {"measurement": "Duration of nausea", "setting": "healthy volunteers; healthy volunteers", "result": 24, "unit": "h"},
      {"measurement": "Effects on vigilance", "setting": "healthy volunteers; healthy volunteers", "result": "moderate"},
      {"measurement": "Subjects who experienced agitation and anxiety", "setting": "healthy volunteers; of nine healthy volunteers", "result": "three"},
      {"measurement": "Subjects who suffered nausea", "setting": "healthy volunteers; of nine healthy volunteers", "result": "one"}
    ]}
  ]
}
